Source: ChEMBL document CHEMBL1145498, “A systematic interaction map of validated kinase inhibitors with Ser/Thr kinases” (Proc Natl Acad Sci U S A, 2007)

What follows are compounds tested against cAMP-dependent protein kinase catalytic subunit alpha (Homo sapiens) (UniProt P17612).

ΔTm [°C]	SMILES
2.1	O=C1C=C2C(=Nc3c2c2c(c4c3=NC3=C4CCC=C3)C=NC=2)CC1
0.4	Cc1nc(Nc2ncc(C(=O)Nc3c(C)cccc3Cl)s2)cc(N2CCN(CCO)CC2)n1
0.4	C[C@@H](N)[C@H]1CC[C@H](C(=O)Nc2ccncc2)CC1

What follows are compounds tested against Casein kinase I isoform gamma-2 (Homo sapiens) (UniProt P78368).
Sequence of Casein kinase I isoform gamma-2 (Homo sapiens) (P78368 whole entry, looked up, canonical isoform): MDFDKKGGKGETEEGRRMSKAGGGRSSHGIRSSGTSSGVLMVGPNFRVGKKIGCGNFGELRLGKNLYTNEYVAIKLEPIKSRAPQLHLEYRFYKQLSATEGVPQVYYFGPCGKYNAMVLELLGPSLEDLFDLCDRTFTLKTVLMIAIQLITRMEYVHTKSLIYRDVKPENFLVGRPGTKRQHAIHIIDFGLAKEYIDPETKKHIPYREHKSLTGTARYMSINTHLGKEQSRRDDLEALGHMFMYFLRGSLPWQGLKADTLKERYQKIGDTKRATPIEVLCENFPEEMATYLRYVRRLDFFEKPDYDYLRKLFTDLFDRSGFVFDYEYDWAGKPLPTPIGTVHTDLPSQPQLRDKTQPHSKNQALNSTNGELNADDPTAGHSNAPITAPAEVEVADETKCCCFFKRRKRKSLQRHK

ΔTm [°C]	SMILES
1.4	O=C1C=C2C(=Nc3c2c2c(c4c3=NC3=C4CCC=C3)C=NC=2)CC1
0.2	Cc1nc(Nc2ncc(C(=O)Nc3c(C)cccc3Cl)s2)cc(N2CCN(CCO)CC2)n1
0.6	C[C@@H](N)[C@H]1CC[C@H](C(=O)Nc2ccncc2)CC1

These compounds were tested against Dual specificity protein kinase CLK1 (Homo sapiens) (UniProt P49759).
Sequence of Dual specificity protein kinase CLK1 (Homo sapiens) (P49759 whole entry, looked up): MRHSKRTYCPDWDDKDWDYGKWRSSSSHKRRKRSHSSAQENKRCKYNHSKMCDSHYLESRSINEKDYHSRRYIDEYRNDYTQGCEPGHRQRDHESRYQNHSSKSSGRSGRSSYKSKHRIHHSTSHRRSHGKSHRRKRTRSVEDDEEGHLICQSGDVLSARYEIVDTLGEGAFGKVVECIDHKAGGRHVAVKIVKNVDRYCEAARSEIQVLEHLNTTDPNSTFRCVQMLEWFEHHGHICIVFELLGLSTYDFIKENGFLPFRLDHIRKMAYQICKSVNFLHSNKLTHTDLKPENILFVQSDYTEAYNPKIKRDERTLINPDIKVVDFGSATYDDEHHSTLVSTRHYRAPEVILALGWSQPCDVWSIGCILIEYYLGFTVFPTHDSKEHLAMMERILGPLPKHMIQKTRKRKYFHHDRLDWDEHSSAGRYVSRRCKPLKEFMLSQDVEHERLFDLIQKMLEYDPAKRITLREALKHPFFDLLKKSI

ΔTm [°C]	SMILES
3.1	O=C1C=C2C(=Nc3c2c2c(c4c3=NC3=C4CCC=C3)C=NC=2)CC1
0.4	Cc1nc(Nc2ncc(C(=O)Nc3c(C)cccc3Cl)s2)cc(N2CCN(CCO)CC2)n1
2.1	C[C@@H](N)[C@H]1CC[C@H](C(=O)Nc2ccncc2)CC1

Each compound was assayed against T1, Dual specificity mitogen-activated protein kinase kinase 6 (Homo sapiens) (UniProt P52564).
T1 sequence (whole entry): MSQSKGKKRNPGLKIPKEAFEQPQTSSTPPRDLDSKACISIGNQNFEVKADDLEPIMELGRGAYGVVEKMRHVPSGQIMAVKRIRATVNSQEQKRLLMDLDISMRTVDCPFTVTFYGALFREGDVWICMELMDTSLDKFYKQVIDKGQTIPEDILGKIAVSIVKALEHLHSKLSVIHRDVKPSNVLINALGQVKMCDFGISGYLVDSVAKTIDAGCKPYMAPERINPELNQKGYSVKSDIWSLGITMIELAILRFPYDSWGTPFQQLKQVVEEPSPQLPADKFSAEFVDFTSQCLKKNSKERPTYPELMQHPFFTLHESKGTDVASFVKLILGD

ΔTm [°C]	SMILES
5.3	O=C1C=C2C(=Nc3c2c2c(c4c3=NC3=C4CCC=C3)C=NC=2)CC1
0.5	Cc1nc(Nc2ncc(C(=O)Nc3c(C)cccc3Cl)s2)cc(N2CCN(CCO)CC2)n1
-0.1	C[C@@H](N)[C@H]1CC[C@H](C(=O)Nc2ccncc2)CC1

Each compound was assayed against T2, Calcium/calmodulin-dependent protein kinase type IV (Homo sapiens) (UniProt Q16566).
T2 sequence (whole entry): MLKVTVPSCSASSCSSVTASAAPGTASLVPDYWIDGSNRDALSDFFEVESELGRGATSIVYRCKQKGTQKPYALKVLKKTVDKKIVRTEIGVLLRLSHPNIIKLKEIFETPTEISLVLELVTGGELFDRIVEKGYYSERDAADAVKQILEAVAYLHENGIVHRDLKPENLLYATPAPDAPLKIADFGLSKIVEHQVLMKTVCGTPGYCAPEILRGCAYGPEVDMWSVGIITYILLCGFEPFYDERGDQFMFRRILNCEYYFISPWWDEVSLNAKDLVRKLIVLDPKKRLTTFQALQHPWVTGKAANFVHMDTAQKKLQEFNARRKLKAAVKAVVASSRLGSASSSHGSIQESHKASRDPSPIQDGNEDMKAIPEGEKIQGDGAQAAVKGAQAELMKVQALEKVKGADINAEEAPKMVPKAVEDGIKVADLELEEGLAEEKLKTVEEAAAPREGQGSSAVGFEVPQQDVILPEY

ΔTm [°C]	SMILES
0.8	O=C1C=C2C(=Nc3c2c2c(c4c3=NC3=C4CCC=C3)C=NC=2)CC1
0.2	Cc1nc(Nc2ncc(C(=O)Nc3c(C)cccc3Cl)s2)cc(N2CCN(CCO)CC2)n1
-0.1	C[C@@H](N)[C@H]1CC[C@H](C(=O)Nc2ccncc2)CC1

What follows are compounds tested against Serine/threonine-protein kinase RIO2 (Homo sapiens) (UniProt Q9BVS4).
Sequence of Serine/threonine-protein kinase RIO2 (Homo sapiens) (Q9BVS4 whole entry, looked up): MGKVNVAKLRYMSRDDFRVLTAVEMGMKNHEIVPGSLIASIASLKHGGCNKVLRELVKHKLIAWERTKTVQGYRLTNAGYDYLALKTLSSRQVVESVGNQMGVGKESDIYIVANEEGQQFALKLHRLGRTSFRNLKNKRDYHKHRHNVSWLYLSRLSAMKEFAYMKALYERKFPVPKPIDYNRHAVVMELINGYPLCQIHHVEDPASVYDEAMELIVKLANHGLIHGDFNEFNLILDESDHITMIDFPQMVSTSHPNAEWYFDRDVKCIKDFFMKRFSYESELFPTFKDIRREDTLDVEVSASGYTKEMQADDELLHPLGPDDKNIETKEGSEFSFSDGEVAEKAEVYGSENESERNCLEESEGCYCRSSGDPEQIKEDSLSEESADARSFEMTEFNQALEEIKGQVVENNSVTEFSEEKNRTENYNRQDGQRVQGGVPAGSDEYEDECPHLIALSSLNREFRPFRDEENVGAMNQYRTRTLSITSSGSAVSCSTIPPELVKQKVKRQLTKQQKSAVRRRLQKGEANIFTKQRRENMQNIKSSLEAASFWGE

ΔTm [°C]	SMILES
4.7	O=C1C=C2C(=Nc3c2c2c(c4c3=NC3=C4CCC=C3)C=NC=2)CC1
2.3	Cc1nc(Nc2ncc(C(=O)Nc3c(C)cccc3Cl)s2)cc(N2CCN(CCO)CC2)n1
0.3	C[C@@H](N)[C@H]1CC[C@H](C(=O)Nc2ccncc2)CC1

These compounds were tested against TRAF2 and NCK-interacting protein kinase (Homo sapiens) (UniProt Q9UKE5).

ΔTm [°C]	SMILES
1.3	O=C1C=C2C(=Nc3c2c2c(c4c3=NC3=C4CCC=C3)C=NC=2)CC1
0.1	C[C@@H](N)[C@H]1CC[C@H](C(=O)Nc2ccncc2)CC1

What follows are compounds tested against Mitogen-activated protein kinase 3 (Homo sapiens, UniProt P27361).
Sequence of Mitogen-activated protein kinase 3 (P27361 whole entry): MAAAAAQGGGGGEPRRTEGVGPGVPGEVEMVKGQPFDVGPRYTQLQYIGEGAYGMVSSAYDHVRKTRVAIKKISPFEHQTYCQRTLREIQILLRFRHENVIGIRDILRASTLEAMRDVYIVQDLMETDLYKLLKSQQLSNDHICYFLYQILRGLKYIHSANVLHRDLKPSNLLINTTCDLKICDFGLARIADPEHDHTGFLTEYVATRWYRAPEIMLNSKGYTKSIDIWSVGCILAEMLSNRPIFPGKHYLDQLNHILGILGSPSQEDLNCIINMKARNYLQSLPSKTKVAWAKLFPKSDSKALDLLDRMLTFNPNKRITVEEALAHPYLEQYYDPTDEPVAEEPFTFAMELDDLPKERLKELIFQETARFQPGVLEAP

ΔTm [°C]	SMILES
0.6	O=C1C=C2C(=Nc3c2c2c(c4c3=NC3=C4CCC=C3)C=NC=2)CC1
0	Cc1nc(Nc2ncc(C(=O)Nc3c(C)cccc3Cl)s2)cc(N2CCN(CCO)CC2)n1
0.1	C[C@@H](N)[C@H]1CC[C@H](C(=O)Nc2ccncc2)CC1

Each compound was assayed against Tyrosine-protein kinase JAK1 (Homo sapiens) (UniProt P23458).
Sequence of Tyrosine-protein kinase JAK1 (Homo sapiens) (P23458 whole entry): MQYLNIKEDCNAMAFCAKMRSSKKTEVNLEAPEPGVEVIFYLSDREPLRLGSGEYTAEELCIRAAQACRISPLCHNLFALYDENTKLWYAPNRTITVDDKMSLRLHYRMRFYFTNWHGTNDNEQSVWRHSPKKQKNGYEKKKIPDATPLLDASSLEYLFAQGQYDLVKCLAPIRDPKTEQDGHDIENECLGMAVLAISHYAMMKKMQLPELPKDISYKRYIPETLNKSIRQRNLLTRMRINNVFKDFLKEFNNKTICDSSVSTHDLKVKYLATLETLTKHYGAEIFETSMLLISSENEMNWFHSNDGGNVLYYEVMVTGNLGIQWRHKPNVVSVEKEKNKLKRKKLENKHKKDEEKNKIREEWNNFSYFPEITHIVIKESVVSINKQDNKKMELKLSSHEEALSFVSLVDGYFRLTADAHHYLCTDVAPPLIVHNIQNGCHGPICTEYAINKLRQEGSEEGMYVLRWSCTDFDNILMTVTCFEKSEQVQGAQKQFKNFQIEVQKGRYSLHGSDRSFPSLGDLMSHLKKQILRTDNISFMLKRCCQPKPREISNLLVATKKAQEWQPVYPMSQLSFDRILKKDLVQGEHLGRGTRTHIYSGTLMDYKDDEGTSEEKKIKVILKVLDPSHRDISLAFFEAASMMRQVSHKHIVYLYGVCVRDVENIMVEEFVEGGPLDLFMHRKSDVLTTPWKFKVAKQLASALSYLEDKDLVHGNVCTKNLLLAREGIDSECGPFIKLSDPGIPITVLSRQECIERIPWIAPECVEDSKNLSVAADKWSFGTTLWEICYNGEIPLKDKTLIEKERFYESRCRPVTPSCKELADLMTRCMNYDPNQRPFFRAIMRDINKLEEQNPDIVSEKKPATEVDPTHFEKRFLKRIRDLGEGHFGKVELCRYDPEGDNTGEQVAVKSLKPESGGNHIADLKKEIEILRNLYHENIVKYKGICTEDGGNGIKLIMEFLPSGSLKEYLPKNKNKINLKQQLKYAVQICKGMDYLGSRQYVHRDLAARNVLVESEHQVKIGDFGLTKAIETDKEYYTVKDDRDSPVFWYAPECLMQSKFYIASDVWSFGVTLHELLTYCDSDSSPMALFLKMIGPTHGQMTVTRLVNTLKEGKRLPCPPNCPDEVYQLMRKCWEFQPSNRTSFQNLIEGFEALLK

ΔTm [°C]	SMILES
6.9	O=C1C=C2C(=Nc3c2c2c(c4c3=NC3=C4CCC=C3)C=NC=2)CC1
3.8	Cc1nc(Nc2ncc(C(=O)Nc3c(C)cccc3Cl)s2)cc(N2CCN(CCO)CC2)n1
-0.4	C[C@@H](N)[C@H]1CC[C@H](C(=O)Nc2ccncc2)CC1

What follows are compounds tested against STE20-like serine/threonine-protein kinase (Homo sapiens) (UniProt Q9H2G2).

ΔTm [°C]	SMILES
6.4	O=C1C=C2C(=Nc3c2c2c(c4c3=NC3=C4CCC=C3)C=NC=2)CC1
0.2	C[C@@H](N)[C@H]1CC[C@H](C(=O)Nc2ccncc2)CC1

The compounds below were run against Serine/threonine-protein kinase Chk2 (Homo sapiens, UniProt O96017).
Sequence of Serine/threonine-protein kinase Chk2 (O96017 whole entry): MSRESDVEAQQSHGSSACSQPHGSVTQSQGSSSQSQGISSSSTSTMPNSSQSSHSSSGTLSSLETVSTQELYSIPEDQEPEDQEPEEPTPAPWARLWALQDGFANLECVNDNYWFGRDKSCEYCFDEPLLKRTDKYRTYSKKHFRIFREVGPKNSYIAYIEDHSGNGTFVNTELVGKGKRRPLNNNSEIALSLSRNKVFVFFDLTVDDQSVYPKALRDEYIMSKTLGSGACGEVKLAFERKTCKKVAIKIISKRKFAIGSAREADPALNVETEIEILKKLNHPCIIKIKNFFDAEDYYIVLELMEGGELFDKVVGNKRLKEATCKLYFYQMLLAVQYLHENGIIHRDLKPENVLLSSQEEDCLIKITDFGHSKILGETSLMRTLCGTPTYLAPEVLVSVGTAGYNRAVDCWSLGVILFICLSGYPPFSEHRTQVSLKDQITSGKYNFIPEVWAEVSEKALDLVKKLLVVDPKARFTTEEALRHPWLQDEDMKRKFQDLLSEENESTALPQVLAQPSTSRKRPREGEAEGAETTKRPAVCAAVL

ΔTm [°C]	SMILES
7.9	O=C1C=C2C(=Nc3c2c2c(c4c3=NC3=C4CCC=C3)C=NC=2)CC1
1.2	Cc1nc(Nc2ncc(C(=O)Nc3c(C)cccc3Cl)s2)cc(N2CCN(CCO)CC2)n1
-0.7	C[C@@H](N)[C@H]1CC[C@H](C(=O)Nc2ccncc2)CC1

These compounds were tested against Calcium/calmodulin-dependent protein kinase kinase 2 (Homo sapiens, UniProt Q96RR4).
Sequence of Calcium/calmodulin-dependent protein kinase kinase 2 (Q96RR4 2-588 limits assumed): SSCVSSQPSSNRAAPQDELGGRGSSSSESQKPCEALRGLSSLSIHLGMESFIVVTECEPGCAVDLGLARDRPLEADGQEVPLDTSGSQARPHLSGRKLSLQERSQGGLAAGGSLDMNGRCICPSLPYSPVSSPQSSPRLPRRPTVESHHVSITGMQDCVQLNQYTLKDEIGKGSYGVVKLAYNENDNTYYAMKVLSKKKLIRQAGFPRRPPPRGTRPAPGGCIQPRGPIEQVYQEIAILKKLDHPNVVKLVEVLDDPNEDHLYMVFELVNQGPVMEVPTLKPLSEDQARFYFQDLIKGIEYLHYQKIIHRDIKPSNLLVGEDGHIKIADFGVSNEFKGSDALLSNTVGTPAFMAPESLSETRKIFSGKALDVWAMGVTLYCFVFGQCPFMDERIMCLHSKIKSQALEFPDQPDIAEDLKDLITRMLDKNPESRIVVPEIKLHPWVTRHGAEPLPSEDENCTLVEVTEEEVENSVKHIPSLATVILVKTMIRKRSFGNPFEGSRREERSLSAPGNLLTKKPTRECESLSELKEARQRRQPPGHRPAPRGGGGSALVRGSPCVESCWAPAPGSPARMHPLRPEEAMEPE

ΔTm [°C]	SMILES
6.3	O=C1C=C2C(=Nc3c2c2c(c4c3=NC3=C4CCC=C3)C=NC=2)CC1
0.6	Cc1nc(Nc2ncc(C(=O)Nc3c(C)cccc3Cl)s2)cc(N2CCN(CCO)CC2)n1
-0.8	C[C@@H](N)[C@H]1CC[C@H](C(=O)Nc2ccncc2)CC1

What follows are compounds tested against Ribosomal protein S6 kinase alpha-3 (Homo sapiens) (UniProt P51812).

ΔTm [°C]	SMILES
4.4	O=C1C=C2C(=Nc3c2c2c(c4c3=NC3=C4CCC=C3)C=NC=2)CC1
0.9	Cc1nc(Nc2ncc(C(=O)Nc3c(C)cccc3Cl)s2)cc(N2CCN(CCO)CC2)n1

What follows are compounds tested against 5'-AMP-activated protein kinase catalytic subunit alpha-2 (Homo sapiens) (UniProt P54646).

ΔTm [°C]	SMILES
-0.2	O=C1C=C2C(=Nc3c2c2c(c4c3=NC3=C4CCC=C3)C=NC=2)CC1
0.2	Cc1nc(Nc2ncc(C(=O)Nc3c(C)cccc3Cl)s2)cc(N2CCN(CCO)CC2)n1
0.5	C[C@@H](N)[C@H]1CC[C@H](C(=O)Nc2ccncc2)CC1

The compounds below were run against T3, Serine/threonine-protein kinase VRK3 (Homo sapiens) (UniProt Q8IV63).
T3 sequence (whole entry): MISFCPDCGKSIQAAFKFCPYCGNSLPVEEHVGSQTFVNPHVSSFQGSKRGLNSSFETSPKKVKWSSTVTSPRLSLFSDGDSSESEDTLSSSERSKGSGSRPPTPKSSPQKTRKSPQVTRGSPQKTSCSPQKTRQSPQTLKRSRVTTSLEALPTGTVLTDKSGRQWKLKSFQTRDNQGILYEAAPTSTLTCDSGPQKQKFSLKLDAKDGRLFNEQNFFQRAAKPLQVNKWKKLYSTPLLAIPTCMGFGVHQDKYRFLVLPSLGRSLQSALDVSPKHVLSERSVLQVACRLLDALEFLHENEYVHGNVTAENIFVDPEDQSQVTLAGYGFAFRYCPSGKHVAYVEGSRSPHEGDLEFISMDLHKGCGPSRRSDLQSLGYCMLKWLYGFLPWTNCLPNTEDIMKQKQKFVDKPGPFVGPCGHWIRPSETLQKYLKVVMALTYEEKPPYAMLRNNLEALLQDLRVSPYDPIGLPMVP

ΔTm [°C]	SMILES
0.2	C[C@@H](N)[C@H]1CC[C@H](C(=O)Nc2ccncc2)CC1

The compounds below were run against Casein kinase I isoform gamma-3 (Homo sapiens) (UniProt Q9Y6M4).

ΔTm [°C]	SMILES
0.8	O=C1C=C2C(=Nc3c2c2c(c4c3=NC3=C4CCC=C3)C=NC=2)CC1
1.2	Cc1nc(Nc2ncc(C(=O)Nc3c(C)cccc3Cl)s2)cc(N2CCN(CCO)CC2)n1
0.4	C[C@@H](N)[C@H]1CC[C@H](C(=O)Nc2ccncc2)CC1

These compounds were tested against Calcium/calmodulin-dependent protein kinase type II subunit alpha (Homo sapiens) (UniProt Q9UQM7).
Sequence of Calcium/calmodulin-dependent protein kinase type II subunit alpha (Homo sapiens) (Q9UQM7 whole entry): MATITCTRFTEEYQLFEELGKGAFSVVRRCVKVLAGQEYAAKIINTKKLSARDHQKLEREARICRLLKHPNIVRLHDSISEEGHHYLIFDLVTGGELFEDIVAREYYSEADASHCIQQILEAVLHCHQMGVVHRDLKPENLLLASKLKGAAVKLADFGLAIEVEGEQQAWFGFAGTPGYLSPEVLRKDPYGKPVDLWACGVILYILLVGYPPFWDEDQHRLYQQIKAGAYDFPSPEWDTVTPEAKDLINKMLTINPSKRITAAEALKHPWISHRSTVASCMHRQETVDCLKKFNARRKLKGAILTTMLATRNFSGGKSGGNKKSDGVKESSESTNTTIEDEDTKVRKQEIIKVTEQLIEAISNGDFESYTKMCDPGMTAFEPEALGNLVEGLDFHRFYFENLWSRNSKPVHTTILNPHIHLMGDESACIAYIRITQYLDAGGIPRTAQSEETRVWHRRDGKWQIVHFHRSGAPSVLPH

ΔTm [°C]	SMILES
3.7	O=C1C=C2C(=Nc3c2c2c(c4c3=NC3=C4CCC=C3)C=NC=2)CC1
0	Cc1nc(Nc2ncc(C(=O)Nc3c(C)cccc3Cl)s2)cc(N2CCN(CCO)CC2)n1
-0.3	C[C@@H](N)[C@H]1CC[C@H](C(=O)Nc2ccncc2)CC1

What follows are compounds tested against T4, 3-phosphoinositide-dependent protein kinase 1 (Homo sapiens) (UniProt O15530).
T4 sequence (whole entry): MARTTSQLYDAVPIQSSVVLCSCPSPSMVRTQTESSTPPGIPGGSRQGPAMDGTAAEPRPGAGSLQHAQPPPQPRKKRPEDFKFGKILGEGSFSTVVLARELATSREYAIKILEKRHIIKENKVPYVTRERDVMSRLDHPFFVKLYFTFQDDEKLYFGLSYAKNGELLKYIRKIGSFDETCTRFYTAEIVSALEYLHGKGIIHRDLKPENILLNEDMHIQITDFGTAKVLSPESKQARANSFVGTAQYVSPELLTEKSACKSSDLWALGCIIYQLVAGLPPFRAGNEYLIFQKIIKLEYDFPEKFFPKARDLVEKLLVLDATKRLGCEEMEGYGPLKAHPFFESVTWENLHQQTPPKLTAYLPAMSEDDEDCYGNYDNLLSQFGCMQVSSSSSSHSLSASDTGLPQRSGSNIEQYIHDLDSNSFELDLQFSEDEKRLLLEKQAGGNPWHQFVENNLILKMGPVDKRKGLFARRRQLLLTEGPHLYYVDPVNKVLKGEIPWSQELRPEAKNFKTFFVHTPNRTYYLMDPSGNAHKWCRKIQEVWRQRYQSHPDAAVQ

ΔTm [°C]	SMILES
-0.3	O=C1C=C2C(=Nc3c2c2c(c4c3=NC3=C4CCC=C3)C=NC=2)CC1
6.8	Cc1nc(Nc2ncc(C(=O)Nc3c(C)cccc3Cl)s2)cc(N2CCN(CCO)CC2)n1
-0.3	C[C@@H](N)[C@H]1CC[C@H](C(=O)Nc2ccncc2)CC1

The compounds below were run against Serine/threonine-protein kinase Nek6 (Homo sapiens) (UniProt Q9HC98).
Sequence of Serine/threonine-protein kinase Nek6 (Homo sapiens) (Q9HC98 whole entry): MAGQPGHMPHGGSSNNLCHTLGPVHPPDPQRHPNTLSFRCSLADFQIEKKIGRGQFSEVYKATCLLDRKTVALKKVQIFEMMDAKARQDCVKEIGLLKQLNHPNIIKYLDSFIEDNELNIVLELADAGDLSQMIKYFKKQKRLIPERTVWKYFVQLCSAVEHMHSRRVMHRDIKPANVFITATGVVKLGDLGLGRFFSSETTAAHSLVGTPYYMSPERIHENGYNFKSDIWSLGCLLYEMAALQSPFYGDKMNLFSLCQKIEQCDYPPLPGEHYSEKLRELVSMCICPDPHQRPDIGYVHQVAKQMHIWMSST

ΔTm [°C]	SMILES
0.5	O=C1C=C2C(=Nc3c2c2c(c4c3=NC3=C4CCC=C3)C=NC=2)CC1
0.2	Cc1nc(Nc2ncc(C(=O)Nc3c(C)cccc3Cl)s2)cc(N2CCN(CCO)CC2)n1
0	C[C@@H](N)[C@H]1CC[C@H](C(=O)Nc2ccncc2)CC1
